{"source": "patent US20250320190A1", "about": "“Novel Inhibitors of Leucine Carboxyl Methyltransferase-1 (LCMT-1) and Methods of Use Thereof” (Temple University-Of The Commonwealth System of Higher …, priority 2024, published 2025)", "key": {"Plasma protein binding": {"test": "Plasma protein binding", "type": "in vitro ADME", "details": "read-out: Plasma Protein Binding (bound fraction) (converted)", "description": "There is no cause for concern at this stage since there are multiple strategies and reagents for enhancing aqueous solubility for animal in vivo studies (Savjani, K. T., A. K. Gajjar and J. K. Savjani, 2012, ISRN Pharm 2012: 195727.). […] While target tissue exposure is dependent on free, unbound fractions in the plasma, plasma protein binding can protect compounds from hepatic metabolism. Thus, in vivo metabolism and excretion are often determined by a balance between these two properties. In vivo half-life is a complicated property impacted upon by multiple factors and is difficult to predict. […] While these numbers are somewhat low for a drug candidate, they are acceptable for proof of concept tool molecules which can be given multiple times per day and at higher doses to saturate metabolism."}, "UM-SCC-12 cells": {"test_system": "UM-SCC-12 cells", "test": "Western blots (pMLKL, ACSL4) with and without irradiation", "type": "cell-based, human", "details": "LCMT-li alone", "description": "(§1) To better understand cellular outcomes associated with combining LCMT-li with radiotherapy (Adjemian, S. et al., 2020, Cell Death Dis 11(11): 1003), SCC-15, SCC-25, UM-SCC-12, UM-SCC-14a and UM-SCC-49 cells were treated with LCMT-li, radiotherapy or both as described for Annexin V assays. UM-SCC-69 cells were not used for immunoblots because insufficient numbers of cells survived irradiation to obtain sufficient lysates. After 24 hours, cells were lysed in radioimmunoprecipitation assay buffer containing protease inhibitors (Boster Bio, Pleasanton, California, catalog #AR1182-1) and phosphatase inhibitors (Santa Cruz Biotechnology catalog #sc-45044 and #sc-45045). Protein concentrations were measured with a bicinchoninic acid assay (G-Biosciences, Saint Louis, Missouri). Fifty micrograms of each lysate were used for bis-tris polyacrylamide gel electrophoresis. Resolved lysates were transferred to nitrocellulose membranes. Membranes were blocked with TBS with 5% bovine serum albumin before incubation with primary antibodies.\n(§2) The anti-phospho-mixed lineage kinase domain like pseudokinase (pMLKL) antibody was obtained from R&D Systems (Minneapolis, Minnesota, catalog #MAB9187-100, 1:1,000 dilution). Antibodies obtained from Proteintech (Rosemont, Illinois) included anti-MLKL (catalog #66675-1-Ig, 1:5,000 dilution) and anti-β-actin (catalog #66009-1-Ig, 1:50,000 dilution). The anti-long-chain-fatty-acid-Coenzyme A ligase 4 (ACSL4) antibody was obtained from Santa Cruz Biotechnology (Dallas, Texas, catalog #sc-365230, 1:1,000 dilution). Appropriate IR-dye secondary antibodies obtained from Jackson ImmunoResearch Laboratories (West Grove, Pennsylvania) were used (Alexa Fluor® 790-conjugated anti-mouse (catalog #115-655-146, 1:50,000 dilution), Alexa Fluor® 680-conjugated anti-mouse (catalog #115-625-146, 1:50,000 dilution), and Alexa Fluor® 680-conjugated anti-rabbit (catalog #115-625-144, 1:50,000 dilution). Band densities were normalized to β-actin, the endogenous control. Twelve replicates were used for statistical analyses."}, "SCC-25 cells": {"test_system": "SCC-25 cells", "test": "Western blots (pMLKL, ACSL4) with and without irradiation", "type": "cell-based, human", "details": "alone and in combination with irradiation", "description": "as §1, §2"}, "SCC-15 cells": {"test_system": "SCC-15 cells", "test": "Western blots (pMLKL, ACSL4) with and without irradiation", "type": "cell-based, human", "details": "alone or with irradiation", "description": "as §1, §2"}, "Rosi cells": {"test_system": "Rosi cells", "test": "Cytotoxicity assay (calcein-AM)", "type": "cell-based, human", "details": "Homo sapiens; Rosi; 48 hours; read-out: Log [μM] EC50 (converted)", "description": "HS-5, HEK-293, MCF7, MDA-MB-231 and Rosi cells were seeded in 96-well optical bottom tissue culture plates (Corning, New York) at a density of 2.5×10^3 cells/well. […] Control cells were given fresh media. After 48 hours the media were aspirated and plates were washed with warmed Dulbecco's phosphate-buffered saline (DPBS) with calcium and magnesium (Sigma-Aldrich, catalog #D1283). Cells were stained with 3 μM calcein-AM (AAT Bioquest, Pleasanton, California, catalog #22002) in DPBS for 30 minutes in the dark at 37° C. Plates were immediately read with a Biotek fluorescent plate reader (excitation 485 nm, emission 520 nm). The cytotoxicity assays were performed at least three times, each time with six replicates per condition."}, "rhLCMT-1": {"target": "T1, rhLCMT-1 (Homo sapiens, UniProt Q9UIC8)", "T1 construct": "purchased SignalChem (Richmond, British Columbia, Canada)", "T1 sequence (Q9UIC8 whole entry)": "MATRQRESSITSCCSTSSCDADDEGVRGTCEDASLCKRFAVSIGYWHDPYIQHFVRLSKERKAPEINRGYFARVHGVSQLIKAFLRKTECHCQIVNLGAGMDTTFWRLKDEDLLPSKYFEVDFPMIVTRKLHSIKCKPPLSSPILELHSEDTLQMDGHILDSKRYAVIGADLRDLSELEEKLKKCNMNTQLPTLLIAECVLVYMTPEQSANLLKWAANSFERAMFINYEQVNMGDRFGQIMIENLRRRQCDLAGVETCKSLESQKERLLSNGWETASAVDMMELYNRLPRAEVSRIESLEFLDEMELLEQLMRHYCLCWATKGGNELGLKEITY", "test": "rhLCMT-1 activity assay (dot immunoblot)", "type": "biochemical", "details": "each inhibitor 50 μM; 20 μM SAM; 37° C. for 30 minutes", "description": "Recombinant human LCMT-1 (rhLCMT-1) and rhPP2Ac were obtained from SignalChem (Richmond, British Columbia, Canada). Methyltransferase assays were performed with 100 ng rhLCMT-1 and 91.62 ng rhPP2Ac (2:1 molar ratio) (28) in reaction buffer containing 20 mM Tris (pH 8.0), 50 mM NaCl, 1 mM EDTA. rhLCMT-1 was incubated with Compound 1 (Chemspace, San Jose, California), Compound 2 (Akos Consulting and Solutions, Amtsgericht, Freiburg, Germany) or sinefungin, a SAM analogue, (Active Motif, Carlsbad, California), each at 50 μM final concentration, for 10 minutes at room temperature. rhPP2Ac was added to the reactions with 20 μM (final concentration) SAM (New England Biolabs, Ipswich, Massachusetts, FIG. 9). […] Reactions were incubated at 37° C. for 30 minutes (FIG. 10). Because the inhibitors gave false positive results with the secondary reactions used in colorimetric and bioluminescent methyltansferase assays, LCMT-1 activity was assessed using dot immunoblots. Reactions were applied to nitrocellulose membranes (Cytiva, Marlborough, Massachusetts). […] Membranes were treated with infrared (IR)-dye anti-mouse antibody (Li-Cor, Lincoln, Nebraska, catalog #926-32210, 1:20,000 dilution) and densities were measured with Li-Cor Image Studio (version 5.2) software. rhLCMT-1 inhibition assays were performed three times, each time with five replicates for each condition."}, "MCF7 cells": {"test_system": "MCF7 cells", "test": "Cell cycle analysis (BrdU flow cytometry)", "type": "cell-based, human", "details": "20 μM, 24 hours", "description": "MCF7, MDA-MB-231 and Rosi cells were seeded in 6-well tissue culture plates (Celltreat) at a density of 5×10^5 cells per well. After 24 hours, the DMEM was changed to media containing 20 μM LB-100 or Compound 2. Control cells were given fresh media. After 24 hours, cells were labeled with 50 μM bromodeoxyuridine (BrdU, BioGems, Westlake Village, California, catalog #5911439). Cells were lifted with 0.25% trypsin, 2.21 mM ethylenediaminetetraacetic acid (Corning catalog #25-053-CI) after 4 hours and fixed with 70% ethanol overnight at 4° C. Cells were pelleted and cellular DNA was denatured with HCl. After neutralization with 1 M Tris, pH 8.5, cells were labeled with FITC-anti-BrdU (Biolegend, San Diego, California, catalog #364104, 5 μL/100 μL cell suspension) and 7-aminoactinomycin-D (7-AAD, Biolegend, catalog #420404, 1 μL/100 μL cell suspension). Cells were analyzed with a Becton-Dickinson FACSymphony™ flow cytometer. Cell cycle analyses were performed three times."}}, "data": [{"molecule": "COC(=O)c1c(NC(=O)c2ccccc2C)sc(C(=O)Nc2cccc(C)c2)c1C", "note": "[Compound 2, methyl 4-methyl-2-[(2-methylbenzoyl)amino]-5-[[(3-methylphenyl)amino]carbonyl]-3-thiophenecarboxylate]", "values": [{"measurement": "fraction unbound", "setting": "Plasma protein binding", "value": 0.029}, {"measurement": "necroptosis (pMLKL) and ferroptosis (ACSL4)", "setting": "UM-SCC-12 cells", "value": "increased necroptosis and ferroptosis"}, {"measurement": "necroptosis (pMLKL expression)", "setting": "SCC-25 cells", "value": "increased necroptosis"}, {"measurement": "necroptosis (pMLKL) and ferroptosis (ACSL4)", "setting": "SCC-15 cells", "value": "did not induce necroptosis or ferroptosis"}, {"measurement": "EC50", "setting": "Rosi cells", "value": 3.16, "unit": "µM"}, {"measurement": "methylation of rhPP2Ac by rhLCMT-1", "setting": "rhLCMT-1", "value": "inhibited methylation of rhPP2Ac to the same degree as the SAM analogue sinefungin"}, {"measurement": "cell cycle effect", "setting": "MCF7 cells", "value": "did not change cell cycle dynamics"}]}]}
